Measurements taken from article PMC2929814 (Journal of medicinal chemistry, 2010).
Like-named read-outs stand apart in the source and are kept apart here. Blank lines part the entries; values can stand above or below the compound they belong to.

Experiments:
mouse spleen lymphocytes = assay: Cytotoxicity against mouse spleen lymphocytes; conditions: estimated ±50%
[1] = test system: P. falciparum D6 (CQS) strain; assay: Activity against CQ-sensitive P. falciparum D6 in red cell culture; type: cell-based, Plasmodium falciparum
parasitemia = conditions: mouse model, oral dosing; cited from earlier work
[2] = test system: P. falciparum D6 (CQS) strain; conditions: read-out: IC50 against the D6 strain; reported value; cited from earlier work

IC50 ([1]; Plasmodium falciparum, D6, read-out: IC50 D6 (CQS)): 7 nM
Compound: CCN(CC)CCCC(C)Nc1ccnc2cc(Cl)ccc12 (stereo not shown) [CQ, chloroquine, reference compound]
Cytotoxicity (mouse spleen lymphocytes): 12 µM

Compound: CN(CCCNc1ccnc2cc(Cl)ccc12)CCCN1c2ccccc2CCc2ccccc21 [Compound 1]
parasitemia cleared to (parasitemia): < 1%
Cytotoxicity (mouse spleen lymphocytes): 0.7 µM

Compound: Clc1ccc2c(NCCCNCCCCN(Cc3ccccc3)Cc3ccccc3)ccnc2c1 [Compound 5]
Cytotoxicity (mouse spleen lymphocytes): 1.3 µM

Compound: Clc1ccc2c(NCCN(CCN(Cc3ccccc3)Cc3ccccc3)CCN(Cc3ccccc3)Cc3ccccc3)ccnc2c1 [Compound 7]
Cytotoxicity (mouse spleen lymphocytes): 6.2 µM

Compound: O=C(CNCCNc1ccnc2cc(Cl)ccc12)N(c1ccccc1)c1ccccc1 [Compound 10]
Cytotoxicity (mouse spleen lymphocytes): 62 µM
therapeutic index (cytotoxicity/efficacy) for D6 ([1]; cytotoxicity / IC50 D6): 12,000

Compound: Clc1ccc2c(N3CCN(CCN(Cc4ccccc4)Cc4ccccc4)CC3)ccnc2c1 [Compound 11]
Cytotoxicity (mouse spleen lymphocytes): 61 µM

Compound: Clc1ccc2c(N3CCN(CCCN4CCN(c5ccnc6cc(Cl)ccc56)CC4)CC3)ccnc2c1 [piperaquine, 1,3-bis-[4-(7-chloroquinolyl-4)-piperazinyl-1]-propane]
IC50 [2]: < 10 nM
